The source made the active and inactive calls. The rule behind the calls is not given here.

The IC50 is the concentration that inhibits the measured activity by half.

In data set [1] the test system is 3T3-L1. Briefly: Inhibition of preadipocyte differentiation in mouse 3T3-L1 cells assessed as lipid droplet accumulation at 100 uM incubated for 8 days by Oil Red O staining method relative to untreated control. The format is functional.
Data set [2] has as its system 3T3-L1. Briefly: Cytotoxicity against in mouse 3T3-L1 cells assessed as reduction in cell viability at 100 uM incubated for 24 hrs by MTT assay relative to control. The class given is cell-based. The settings on record: 3t3-l1, 24 h. (In general: Formazan colour is commonly taken as a measure of viable cells.)
For data set [3], the system named is 3T3-L1. Briefly: Anti-adipogenic activity against mouse 3T3-L1 cells assessed as decrease in p-P38 protein expression measured after 8 days by Western blotting analysis relative to control. The format is functional, cell-based. The settings on record: time 8.0 day.
Data set [4] deals with 3T3-L1. Briefly: Inhibition of preadipocyte differentiation in mouse 3T3-L1 cells assessed as lipid droplet accumulation incubated for 8 days by Oil Red O staining method relative to untreated control. The note with it: 3T3-L1, 192 h. The format is functional, cell-based.
In data set [5] the test system is 3T3-L1. Briefly: Anti-adipogenic activity against mouse 3T3-L1 cells assessed as decrease in P38 protein expression measured after 8 days by Western blotting analysis relative to control. The format is functional, cell-based. The settings on record: time 8.0 day.
Data set [6] relates to 3T3-L1. Briefly: Anti-adipogenic activity against mouse 3T3-L1 cells assessed as decrease in C/EBPalpha protein expression measured after 8 days by Western blotting analysis relative to control. The class given is functional, cell-based. The settings on record: time 8.0 day.
Data set [7] has as its system 3T3-L1. Briefly: Anti-adipogenic activity against mouse 3T3-L1 cells assessed as decrease in p-JNK protein expression measured after 8 days by Western blotting analysis relative to control. The format is functional, cell-based. The note with it: time 8.0 day. For orientation: Immunoblotting shows a protein as a band on a membrane.
Data set [8] concerns 3T3-L1. Briefly: Anti-adipogenic activity against mouse 3T3-L1 cells assessed as decrease in ERK protein expression measured after 8 days by Western blotting analysis relative to control. The format is functional, cell-based. The note with it: time 8.0 day.
The subject of data set [9] is 3T3-L1. Briefly: Anti-adipogenic activity against mouse 3T3-L1 cells assessed as decrease in C/EBPbeta protein expression measured after 8 days by Western blotting analysis relative to control. The class given is functional, cell-based. The note with it: time 8.0 day.
The subject of data set [10] is 3T3-L1. Briefly: Anti-adipogenic activity against mouse 3T3-L1 cells assessed as decrease in JNK protein expression measured after 8 days by Western blotting analysis relative to control. The format is functional, cell-based. The note with it: time 8.0 day.
Data set [11] deals with 3T3-L1. Briefly: Anti-adipogenic activity against mouse 3T3-L1 cells assessed as decrease in p-ERK protein expression measured after 8 days by Western blotting analysis relative to control. The class given is functional, cell-based. The note with it: time 8.0 day.
Data set [12] relates to 3T3-L1. Briefly: Anti-adipogenic activity against mouse 3T3-L1 cells assessed as decrease in GR protein expression measured after 8 days by Western blotting analysis relative to control. The format is functional, cell-based. The settings on record: time 8.0 day.
The subject of data set [13] is 3T3-L1. Briefly: Anti-adipogenic activity against mouse 3T3-L1 cells assessed as decrease in PPARgamma protein expression measured after 8 days by Western blotting analysis relative to control. The class given is functional, cell-based. The note with it: time 8.0 day.

Regarding `C[C@@H]1O[C@@H](Oc2c(-c3ccc(O)cc3)oc3cc(O)cc(O)c3c2=O)[C@H](O)[C@H](O)[C@H]1O` [AFZELIN], the result with 3T3-L1 [1] (time 8.0 day) was Active. In addition, the Activity entry in the data set with 3T3-L1 [2] is “Non-Toxic”.
With `C[C@@H]1O[C@@H](OC[C@H]2O[C@@H](Oc3c(-c4ccc(O)cc4)oc4cc(O)cc(O)c4c3=O)[C@H](O)[C@@H](O)[C@@H]2O)[C@H](O)[C@H](O)[C@H]1O` [NICOTIFLOROSIDE], the result in the data set with 3T3-L1 [1] (time 8.0 day) was Active. Further, the Activity entry in the data set on 3T3-L1 [2] is recorded as “Non-Toxic”.
The matching figures for `NC(=O)[C@H](O[C@@H]1O[C@H](CO[C@@H]2O[C@H](CO)[C@@H](O)[C@H](O)[C@H]2O)[C@@H](O)[C@H](O)[C@H]1O)c1ccccc1`: “Active” and “Non-Toxic”.
In the case of `COC(=O)/C=C/c1ccc(O)c(O)c1` [METHYLCAFFEATE], the Activity is on record as 34.67% in the data set on 3T3-L1 [1] (time 8 day) and “Non-Toxic” in the data set on 3T3-L1 [2].
As to `O=C1C[C@@H](c2ccc(O)cc2)Oc2cc(O[C@@H]3O[C@H](CO)[C@@H](O)[C@H](O)[C@H]3O)cc(O)c21` [PRUNIN], the result in the data set with 3T3-L1 [1] (time 8.0 day) was Active. The Activity result in the data set with 3T3-L1 [2] is given as “Non-Toxic”.
Taken in the same sequence, the figures for `O=c1c(O[C@@H]2O[C@H](CO)[C@@H](O)[C@H](O)[C@H]2O)c(-c2ccc(O)cc2)oc2cc(O)cc(O)c12` [ASTRAGALIN] were “Active” and “Non-Toxic”.
As for `NC(=O)[C@H](O[C@@H]1O[C@H](CO)[C@@H](O)[C@H](O)[C@H]1O)c1ccccc1`, the result in the data set with 3T3-L1 [1] (time 8.0 day) was Active. Besides, the Activity entry in the data set with 3T3-L1 [2] is on record as “Non-Toxic”.
For `NC(=O)[C@H](O)c1ccccc1`, the Activity result was “Dose-Dependent Effect” in the data set with 3T3-L1 [3]; 12.23% in the data set with 3T3-L1 [1] (time 8 day); “Dose-Dependent Effect” in the data set on 3T3-L1 [5]; “Dose-Dependent Effect” with 3T3-L1 [6]; “Dose-Dependent Effect” in the data set with 3T3-L1 [7]; “Dose-Dependent Effect” with 3T3-L1 [8]. The Activity result with 3T3-L1 [9] was “Dose-Dependent Effect”; in the data set with 3T3-L1 [10] it was “Dose-Dependent Effect”; in the data set on 3T3-L1 [2], “Non-Toxic”; with 3T3-L1 [11] it was “Dose-Dependent Effect”; with 3T3-L1 [12], “Dose-Dependent Effect”; in the data set on 3T3-L1 [13], “Dose-Dependent Effect”. Also, the IC50 in the data set on 3T3-L1 [4] was 36 µM.
`O=C(/C=C/c1ccc(O)c(O)c1)O[C@@H]1C[C@](O)(C(=O)O)C[C@@H](O)[C@H]1O` [CHLOROGENIC ACID]: the Activity with 3T3-L1 [1] (time 8 day) is given as 58.44%; with 3T3-L1 [2] it was “Non-Toxic”.
For `O=C(O)[C@H](O[C@@H]1O[C@H](CO)[C@@H](O)[C@H](O)[C@H]1O)c1ccccc1`, the outcome with 3T3-L1 [1] (time 8.0 day) was Active. Also, the Activity entry in the data set with 3T3-L1 [2] is listed as “Non-Toxic”.
Take `O[C@@H]1[C@@H](O)[C@H](OCc2ccccc2)O[C@H](CO[C@H]2OC[C@H](O)[C@@H](O)[C@@H]2O)[C@H]1O`: in the data set on 3T3-L1 [1] (time 8.0 day), the outcome was Active. Besides, in the data set with 3T3-L1 [2], the Activity entry is “Non-Toxic”.
Turning to `COc1cc(/C=C/C(=O)O)ccc1O` [FERULATE], the Activity in the data set with 3T3-L1 [1] (time 8 day) is on record as 58.22%; in the data set with 3T3-L1 [2], “Non-Toxic”.
Taken in the same sequence, the figures for `O=C1C[C@@H](c2ccc(O)cc2)Oc2cc(O)cc(O)c21` [NARINGENIN] were 44.21% and “Non-Toxic”.
As for `O=c1ccn([C@@H]2O[C@H](CO)[C@@H](O)[C@H]2O)c(=O)[nH]1` [URIDINE], the outcome in the data set on 3T3-L1 [1] (time 8.0 day) was Active. Besides, the Activity result in the data set with 3T3-L1 [2] was “Non-Toxic”.

Source of the values: ChEMBL document CHEMBL4823304, “Phytochemicals from the flowers of Prunus persica (L.) Batsch: Anti-adipogenic effect of mandelamide on 3T3-L1 preadipocytes” (Bioorg Med Chem Lett, 2021).
